From US10004701B2, “Methods and compositions for treating infection” (UNIVERSITY OF ROCHESTER, priority 2012, dated 2018)
Counter-ions that a name gives are not always drawn. Like-named read-outs stand apart in the source and are kept apart here.

Assays:
Test in all cases: AK assay 384-well format, Prestwick library screening
E. cloacae = type: cell-based, Enterobacter cloacae; conditions: Enterobacter cloacae, 3 h
[1] = test system: S. aureus strain USA300-0114; type: cell-based, Staphylococcus aureus; conditions: Staphylococcus aureus, USA300, 3 h
[2] = test system: A. baumannii strain 98-37-09; type: cell-based, Acinetobacter baumannii; conditions: Acinetobacter baumannii, 983709, 3 h
E. faecium = type: cell-based, Enterococcus faecium; conditions: Enterococcus faecium, 3 h
P. aeruginosa = type: cell-based, Pseudomonas aeruginosa; conditions: Pseudomonas aeruginosa, 3 h
E. coli = type: cell-based, Escherichia coli; conditions: Escherichia coli, 3 h
K. pneumoniae = type: cell-based, Klebsiella pneumoniae; conditions: Klebsiella pneumoniae, 3 h
[3] = 50 μM final drug concentration, cutoff for positive-scoring molecules 3-fold increase, read-out: AK-based Prestwick Library Screening Results, E. cloacae (fold increase in extracellular AK activity)
[4] = 50 μM final drug concentration, cutoff for positive-scoring molecules 3-fold increase, read-out: AK-based Prestwick Library Screening Results, S. aureus (fold increase in extracellular AK activity)
[5] = 50 μM final drug concentration, cutoff for positive-scoring molecules 3-fold increase, read-out: AK-based Prestwick Library Screening Results, A. baumannii (fold increase in extracellular AK activity)
[6] = 50 μM final drug concentration, cutoff for positive-scoring molecules 3-fold increase, read-out: AK-based Prestwick Library Screening Results, E. faecium (fold increase in extracellular AK activity)
[7] = 50 μM final drug concentration, cutoff for positive-scoring molecules 3-fold increase, read-out: AK-based Prestwick Library Screening Results, P. aeruginosa (fold increase in extracellular AK activity)
[8] = 50 μM final drug concentration, cutoff for positive-scoring molecules 3-fold increase, read-out: AK-based Prestwick Library Screening Results, E. coli (fold increase in extracellular AK activity)
[9] = 50 μM final drug concentration, cutoff for positive-scoring molecules 3-fold increase, read-out: AK-based Prestwick Library Screening Results, K. pneumoniae (fold increase in extracellular AK activity)
[10] = 50 μM final drug concentration, 384-well format, cutoff for positive-scoring molecules 3-fold increase, read-out: AK-based Prestwick Library Screening Results, E. cloacae (increase in extracellular AK activity)
[11] = 50 μM final drug concentration, 384-well format, cutoff for positive-scoring molecules 3-fold increase, read-out: AK-based Prestwick Library Screening Results, S. aureus (increase in extracellular AK activity)
[12] = 50 μM final drug concentration, 384-well format, cutoff for positive-scoring molecules 3-fold increase, read-out: AK-based Prestwick Library Screening Results, A. baumannii (increase in extracellular AK activity)
[13] = 50 μM final drug concentration, 384-well format, cutoff for positive-scoring molecules 3-fold increase, read-out: AK-based Prestwick Library Screening Results, E. faecium (increase in extracellular AK activity)
[14] = 50 μM final drug concentration, 384-well format, cutoff for positive-scoring molecules 3-fold increase, read-out: AK-based Prestwick Library Screening Results, P. aeruginosa (increase in extracellular AK activity)
[15] = 50 μM final drug concentration, 384-well format, cutoff for positive-scoring molecules 3-fold increase, read-out: AK-based Prestwick Library Screening Results, E. coli (increase in extracellular AK activity)
[16] = 50 μM final drug concentration, 384-well format, cutoff for positive-scoring molecules 3-fold increase, read-out: AK-based Prestwick Library Screening Results, K. pneumoniae (increase in extracellular AK activity)

CN1C(C(=O)Nc2ccccn2)=C(O)c2ccccc2S1(=O)=O [Piroxicam]
fold induction at 50 µM (E. cloacae; planktonic E. cloacae, 50 μM final drug concentration, 384-well, cutoff for positive-scoring molecules 3-fold increase, read-out: AK-based Prestwick Library Screening Results: E. cloacae (increase in extracellular AK activity)): 1.4
fold induction at 50 µM ([1]; planktonic S. aureus, 50 μM final drug concentration, 384-well, cutoff for positive-scoring molecules 3-fold increase, read-out: AK-based Prestwick Library Screening Results: S. aureus (increase in extracellular AK activity)): 1.4
fold induction at 50 µM ([2]; planktonic A. baumannii, 50 μM final drug concentration, 384-well, cutoff for positive-scoring molecules 3-fold increase, read-out: AK-based Prestwick Library Screening Results: A. baumannii (increase in extracellular AK activity)): 1
fold induction at 50 µM (E. faecium; planktonic E. faecium, 50 μM final drug concentration, 384-well, cutoff for positive-scoring molecules 3-fold increase, read-out: AK-based Prestwick Library Screening Results: E. faecium (increase in extracellular AK activity)): 1.1
fold induction at 50 µM (P. aeruginosa; planktonic P. aeruginosa, 50 μM final drug concentration, 384-well, cutoff for positive-scoring molecules 3-fold increase, read-out: AK-based Prestwick Library Screening Results: P. aeruginosa (increase in extracellular AK activity)): 1.2
fold induction at 50 µM (E. coli; planktonic E. coli, 50 μM final drug concentration, 384-well, cutoff for positive-scoring molecules 3-fold increase, read-out: AK-based Prestwick Library Screening Results: E. coli (increase in extracellular AK activity)): 1.2
fold induction at 50 µM (K. pneumoniae; planktonic K. pneumoniae, 50 μM final drug concentration, 384-well, cutoff for positive-scoring molecules 3-fold increase, read-out: AK-based Prestwick Library Screening Results: K. pneumoniae (increase in extracellular AK activity)): 1

CC(C)(C)C(=O)OCOC(=O)[C@@H]1N2C(=O)[C@@H](NC(=O)[C@H](N)c3ccccc3)[C@H]2SC1(C)C [Pivampicillin]
fold induction at 50 µM (E. cloacae; planktonic E. cloacae, 50 μM final drug concentration, […], read-out: AK-based Prestwick library screening result, E. cloacae (fold increase in extracellular AK activity)): 1.2
fold induction at 50 µM ([1]; planktonic S. aureus, 50 μM final drug concentration, […], read-out: AK-based Prestwick library screening result, S. aureus (fold increase in extracellular AK activity)): 0.4
fold induction at 50 µM ([2]; planktonic A. baumannii, 50 μM final drug concentration, […], read-out: AK-based Prestwick library screening result, A. baumannii (fold increase in extracellular AK activity)): 1.8
fold induction at 50 µM (E. faecium; planktonic E. faecium, 50 μM final drug concentration, […], read-out: AK-based Prestwick library screening result, E. faecium (fold increase in extracellular AK activity)): 1.1
fold induction at 50 µM (P. aeruginosa; planktonic P. aeruginosa, 50 μM final drug concentration, […], read-out: AK-based Prestwick library screening result, P. aeruginosa (fold increase in extracellular AK activity)): 0.9
fold induction at 50 µM (E. coli; planktonic E. coli, 50 μM final drug concentration, […], read-out: AK-based Prestwick library screening result, E. coli (fold increase in extracellular AK activity)): 1.5
fold induction at 50 µM (K. pneumoniae; planktonic K. pneumoniae, 50 μM final drug concentration, […], read-out: AK-based Prestwick library screening result, K. pneumoniae (fold increase in extracellular AK activity)): 0.9

CC(C)(C)C(=O)OCOC(=O)[C@@H]1N2C(=O)[C@@H](/N=C/N3CCCCCC3)[C@H]2SC1(C)C [Pivmecillinam hydrochloride]
fold induction at 50 µM (E. cloacae; [3]): 0.8
fold induction at 50 µM [1, 4]: 0.6
fold induction at 50 µM [2, 5]: 1.1
fold induction at 50 µM (E. faecium; [6]): 0.9
fold induction at 50 µM (P. aeruginosa; [7]): 0.6
fold induction at 50 µM (E. coli; [8]): 7.7
fold induction at 50 µM (K. pneumoniae; [9]): 0.5

COc1cc([C@@H]2c3cc4c(cc3[C@H](O)[C@H]3COC(=O)[C@H]23)OCO4)cc(OC)c1OC [Podophyllotoxin]
fold induction at 50 µM (E. cloacae; 50 μM final drug concentration, […], read-out: AK-based Prestwick Library Screening Results, E. cloacae (fold increase in extracellular AK activity)): 1.3
fold induction at 50 µM ([1]; 50 μM final drug concentration, […], read-out: AK-based Prestwick Library Screening Results, S. aureus (fold increase in extracellular AK activity)): 1
fold induction at 50 µM ([2]; 50 μM final drug concentration, […], read-out: AK-based Prestwick Library Screening Results, A. baumannii (fold increase in extracellular AK activity)): 1.2
fold induction at 50 µM (E. faecium; 50 μM final drug concentration, […], read-out: AK-based Prestwick Library Screening Results, E. faecium (fold increase in extracellular AK activity)): 0.9
fold induction at 50 µM (P. aeruginosa; 50 μM final drug concentration, […], read-out: AK-based Prestwick Library Screening Results, P. aeruginosa (fold increase in extracellular AK activity)): 1.1
fold induction at 50 µM (E. coli; 50 μM final drug concentration, […], read-out: AK-based Prestwick Library Screening Results, E. coli (fold increase in extracellular AK activity)): 1.2
fold induction at 50 µM (K. pneumoniae; 50 μM final drug concentration, […], read-out: AK-based Prestwick Library Screening Results, K. pneumoniae (fold increase in extracellular AK activity)): 1.2

CC(=O)Nc1ccc(OCC(O)CNC(C)C)cc1 (stereo not shown) [Practolol]
fold induction at 50 µM (E. cloacae; planktonic E. cloacae, 50 μM final drug concentration, cutoff for positive-scoring molecules 3-fold increase, read-out: AK-based Prestwick Library Screening Results, E. cloacae (increase in extracellular AK activity)): 0.8
fold induction at 50 µM ([1]; planktonic S. aureus, 50 μM final drug concentration, cutoff for positive-scoring molecules 3-fold increase, read-out: AK-based Prestwick Library Screening Results, S. aureus (increase in extracellular AK activity)): 0.6
fold induction at 50 µM ([2]; planktonic A. baumannii, 50 μM final drug concentration, cutoff for positive-scoring molecules 3-fold increase, read-out: AK-based Prestwick Library Screening Results, A. baumannii (increase in extracellular AK activity)): 0.7
fold induction at 50 µM (E. faecium; planktonic E. faecium, 50 μM final drug concentration, cutoff for positive-scoring molecules 3-fold increase, read-out: AK-based Prestwick Library Screening Results, E. faecium (increase in extracellular AK activity)): 0.9
fold induction at 50 µM (P. aeruginosa; planktonic P. aeruginosa, 50 μM final drug concentration, cutoff for positive-scoring molecules 3-fold increase, read-out: AK-based Prestwick Library Screening Results, P. aeruginosa (increase in extracellular AK activity)): 0.6
fold induction at 50 µM (E. coli; planktonic E. coli, 50 μM final drug concentration, cutoff for positive-scoring molecules 3-fold increase, read-out: AK-based Prestwick Library Screening Results, E. coli (increase in extracellular AK activity)): 0.7
fold induction at 50 µM (K. pneumoniae; planktonic K. pneumoniae, 50 μM final drug concentration, cutoff for positive-scoring molecules 3-fold increase, read-out: AK-based Prestwick Library Screening Results, K. pneumoniae (increase in extracellular AK activity)): 0.5

C[n+]1ccccc1/C=N/O [Pralidoxime chloride]
fold induction at 50 µM (E. cloacae; read-out: AK-based Prestwick Library Screening Results, E. cloacae (fold increase in extracellular AK activity)): 1.5
fold induction at 50 µM ([1]; read-out: AK-based Prestwick Library Screening Results, S. aureus (fold increase in extracellular AK activity)): 1.3
fold induction at 50 µM ([2]; read-out: AK-based Prestwick Library Screening Results, A. baumannii (fold increase in extracellular AK activity)): 1.4
fold induction at 50 µM (E. faecium; read-out: AK-based Prestwick Library Screening Results, E. faecium (fold increase in extracellular AK activity)): 1
fold induction at 50 µM (P. aeruginosa; read-out: AK-based Prestwick Library Screening Results, P. aeruginosa (fold increase in extracellular AK activity)): 1.2
fold induction at 50 µM (E. coli; read-out: AK-based Prestwick Library Screening Results, E. coli (fold increase in extracellular AK activity)): 1.3
fold induction at 50 µM (K. pneumoniae; read-out: AK-based Prestwick Library Screening Results, K. pneumoniae (fold increase in extracellular AK activity)): 1

CCCCOc1ccc(OCCCN2CCOCC2)cc1 [Pramoxine hydrochloride]
fold induction at 50 µM (E. cloacae; [3]): 1.5
fold induction at 50 µM [1, 4]: 1.3
fold induction at 50 µM [2, 5]: 1.1
fold induction at 50 µM (E. faecium; [6]): 1
fold induction at 50 µM (P. aeruginosa; [7]): 1.2
fold induction at 50 µM (E. coli; [8]): 1.1
fold induction at 50 µM (K. pneumoniae; [9]): 1.1

O=C(C1CCCCC1)N1CC(=O)N2CCc3ccccc3C2C1 (stereo not shown) [Praziquantel]
fold induction at 50 µM (E. cloacae; [10]): 0.7
fold induction at 50 µM [1, 11]: 0.8
fold induction at 50 µM [2, 12]: 0.7
fold induction at 50 µM (E. faecium; [13]): 1
fold induction at 50 µM (P. aeruginosa; [14]): 0.6
fold induction at 50 µM (E. coli; [15]): 0.9
fold induction at 50 µM (K. pneumoniae; [16]): 0.6

CCOC(=O)O[C@]1(C(=O)COC(=O)CC)CC[C@H]2[C@@H]3CCC4=CC(=O)C=C[C@]4(C)[C@H]3[C@@H](O)C[C@@]21C [Prednicarbate]
fold induction at 50 µM (E. cloacae; [3]): 0.3
fold induction at 50 µM [1, 4]: 0.4
fold induction at 50 µM [2, 5]: 0.4
fold induction at 50 µM (E. faecium; [6]): 0.9
fold induction at 50 µM (P. aeruginosa; [7]): 0.4
fold induction at 50 µM (E. coli; [8]): 0.4
fold induction at 50 µM (K. pneumoniae; [9]): 0.5

C[C@]12C=CC(=O)C=C1CC[C@@H]1[C@@H]2[C@@H](O)C[C@@]2(C)[C@H]1CC[C@]2(O)C(=O)CO [Prednisolone]
fold induction at 50 µM (E. cloacae; [10]): 1.3
fold induction at 50 µM [1, 11]: 0.8
fold induction at 50 µM [2, 12]: 1
fold induction at 50 µM (E. faecium; [13]): 1
fold induction at 50 µM (P. aeruginosa; [14]): 1
fold induction at 50 µM (E. coli; [15]): 1
fold induction at 50 µM (K. pneumoniae; [16]): 0.7
